Structures can show the parent of a compound that is named as a salt.
Target: Glutamate receptor ionotropic, NMDA 1 (Rattus norvegicus, UniProt P35439)

Row | Ki [µM] | Structure (SMILES)
1 | 0.3 | OC(CN1CCC(Cc2ccc(F)cc2)CC1)c1ccc(Cl)cc1 (stereo unspecified)
2 | 0.006 | C[C@@H](CN1CCC(Cc2ccccc2)CC1)[C@@H](O)c1ccc(O)cc1
3 | 0.008 | C[C@@H]([C@@H](O)c1ccc(O)cc1)N1CCC(O)(c2ccccc2)CC1 [1-[(1S,2S)-2-Hydroxy-2-(4-hydroxy-phenyl)-1-methyl-ethyl]-4-phenyl-piperidin-4-ol]
4 | 2 | NCCCNCCCCNCCCN [N,N''-bis(3-azanylpropyl)butane-1,4-diamine;hydrochloride]
5 | > 10 | NCCCCNCCCN [spermidine]

Row | Structure (SMILES) | Ki [µM]
6 | COc1cc2c(cc1O)C(CCc1ccc(Cl)cc1)N(C)CC2 (stereo unspecified) [Ro 04-5595] | 0.02

— BindingDB's records for doi:10.1046/j.1471-4159.1998.70052147.x (F. Hoffmann-La Roche, 1998)
